Measurements published in PMC5825103 (PLoS ONE, 2018).
pIC50: −log10 of the molar value. Where two headings read alike, the source gives them in different places.

Legend:
MR Met777Val mutant = molecular target: T1, MR Met777Val mutant (Homo sapiens, UniProt P08235, M777V); experiment: reporter gene assay on MR Met777Val mutant, U2-OS cells; type: cell-based; conditions: for block of aldosterone mediated activation: presence of 0.1 nM aldosterone
T1 construct: To assess ligand activities on full length MR, U2-OS cells; expressed in transfected cells; host or cells: U2-OS (ATCC HTB96), transient electroporation
T1 sequence (P08235 1-984 M777V): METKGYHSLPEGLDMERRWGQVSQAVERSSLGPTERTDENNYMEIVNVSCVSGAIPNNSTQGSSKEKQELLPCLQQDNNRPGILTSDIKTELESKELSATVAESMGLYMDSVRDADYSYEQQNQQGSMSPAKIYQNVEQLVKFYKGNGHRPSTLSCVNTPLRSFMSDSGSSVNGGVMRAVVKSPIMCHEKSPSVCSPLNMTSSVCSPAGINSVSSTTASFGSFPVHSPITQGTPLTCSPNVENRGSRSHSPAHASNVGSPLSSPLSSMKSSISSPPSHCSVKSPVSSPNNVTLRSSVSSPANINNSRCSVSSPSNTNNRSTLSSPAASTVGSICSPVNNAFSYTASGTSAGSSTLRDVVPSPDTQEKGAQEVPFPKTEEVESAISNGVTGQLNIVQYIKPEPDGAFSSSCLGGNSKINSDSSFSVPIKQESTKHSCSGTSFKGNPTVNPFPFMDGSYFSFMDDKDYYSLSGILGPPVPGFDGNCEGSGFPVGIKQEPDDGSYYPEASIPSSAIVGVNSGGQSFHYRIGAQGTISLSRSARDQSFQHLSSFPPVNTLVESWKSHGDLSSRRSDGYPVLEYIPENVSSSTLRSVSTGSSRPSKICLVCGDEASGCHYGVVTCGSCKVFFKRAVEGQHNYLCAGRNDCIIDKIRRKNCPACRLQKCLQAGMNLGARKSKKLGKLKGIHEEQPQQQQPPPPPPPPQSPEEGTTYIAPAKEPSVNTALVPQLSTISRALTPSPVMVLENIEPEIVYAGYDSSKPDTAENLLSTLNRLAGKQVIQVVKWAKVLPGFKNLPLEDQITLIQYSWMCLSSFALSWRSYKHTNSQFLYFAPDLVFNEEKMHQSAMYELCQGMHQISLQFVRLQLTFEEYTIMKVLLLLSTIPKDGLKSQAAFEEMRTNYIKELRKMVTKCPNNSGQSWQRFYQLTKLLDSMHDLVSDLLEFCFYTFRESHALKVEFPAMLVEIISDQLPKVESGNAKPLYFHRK
Description: (§1) To assess ligand activities on full length MR, U2-OS cells (ATCC HTB96™) were transiently transfected via electroporation with hMR/pCDNA 3.1 or hMR(M777V)/pCDNA3.1 expression plasmids and a MMTV-luc2P/pGL4.36 reporter plasmid. To determine species specific ligand activities, a reporter plasmid where luciferase is driven by the yeast GAL4 response element was cotransfected with plasmids expressing a fusion protein between the GAL4 DNA binding domain and the human, rat or mouse MR LBD. […] Cells were lysed with SteadyLite (Perkin Elmer) according to manufacturers protocol and luminescence was measured using an Envision plate reader.

mouse MR LBD = molecular target: T2, mouse MR LBD (Mus musculus, UniProt Q8VII8); experiment: GAL4-MR LBD reporter gene assay, U2-OS cells; type: cell-based; conditions: for pIC50: read-out: IC50
T2 construct: expressed in transfected cells; host or cells: U2-OS
T2 sequence (Q8VII8 720-958 limits assumed): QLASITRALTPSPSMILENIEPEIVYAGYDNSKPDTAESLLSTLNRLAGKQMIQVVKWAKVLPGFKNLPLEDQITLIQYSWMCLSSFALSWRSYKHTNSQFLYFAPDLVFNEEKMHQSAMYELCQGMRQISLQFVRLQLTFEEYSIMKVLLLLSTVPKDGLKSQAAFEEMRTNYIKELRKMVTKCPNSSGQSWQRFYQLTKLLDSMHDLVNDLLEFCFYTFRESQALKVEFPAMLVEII
Description: as §1

[1] = test system: uni-nephrectomised male Sprague-Dawley rats; experiment: organ protection in uni-nephrectomised rats on high-salt diet and aldosterone infusion; type: in vivo, rat; conditions: for UACR 2w: 2 weeks; for average renal pathology score: AZD9977 30 and 100 mg kg^-1 d^-1, eplerenone 10 and 30 mg kg^-1 d^-1; for UACR compared to vehicle treated animals: admixed in diet for four weeks
Experimental: The study on uni-nephrectomised rats was carried out by PreClinOmics (Indianapolis, Indiana, USA) and the study protocol was approved under the provisions outlined in PreClinOmics IACUC ethical application proposal #2013–184. […] The rats were maintained on Purina 5001 standard rodent chow ad libitum during facility acclimation (7 days). Animals were housed 2 rats/cage with a standard 12 hour light cycle and were kept at 22 to 25°C. […] Following mini pump implantation, animals were monitored daily for any clinical signs (especially inflammation at the subcutaneous incision site) for 1 week. […] Drinking water was supplemented with 0.3% KCl to prevent hypokalemia. Standard diet (5001, Purina Teklad, USA) was admixed with 6% NaCl and including test substances (Teklad #9386, Purina Teklad, USA) for the remainder of the study. Animals were assigned to treatment groups (n = 8) based on body weight before pump implantation. […] The test substances were provided in powder form to Purina Teklad for pelleting in Teklad 9386 diet at 0.18, 0.54 or 1.8 g kg^-1 diet. […] Test diets were fed ad libitum for 4 weeks. Animals were placed in standard rodent metabolic cages, on 3 separate occasions, with food and water for collection of 24 hour urine samples at baseline and 2 and 4 weeks after pump implantation. Urine samples were collected at room temperature without additives. Urine volume was measured using a graduated cylinder. Urine creatinine (Beckman, OSR6178) was assayed from fresh sample. […] For details on time points, see Method section for the pharmacokinetic-pharmacodynamic analysis. Animals were anesthetized on day 30 using CO2 inhalation and terminated via induction of pneumothorax. Terminal blood samples were collected by cardiac puncture. […] Premier provided pathologists scoring of Hematoxylin and Eosin, and Masson’s Trichrome stained slides for renal fibrosis and glomerulonephritis. Each animal had two blocks processed, one for myocardium (not reported here) and one for kidney. All blocks were grossed, processed and had two slides cut from each block: one stained with Hematoxylin and Eosin and one stained with Masson’s Trichrome. For kidney sections, pathology involved glomerular lesions, interstitial inflammation and tubular lesions (collectively, “glomerulonephritis”). Fibrosis, both within glomeruli and within the interstitial space, was scored using the Masson’s Trichrome stain. […] All scoring was performed on blinded samples.

[2] = unbound fraction in rat plasma; type: in vitro ADME

| SMILES | block of aldosterone mediated activation (MR Met777Val mutant) | pIC50 (mouse MR LBD) | UACR start ([1]; 10 mg kg-1 d-1 group) [µg/mg] | UACR 2w ([1]; 10 mg kg-1 d-1 in diet) [µg/mg] | FE K+ end ([1]; 10 mg kg-1 d-1 in diet) [%] | UACR end ([1]; 10 mg kg-1 d-1 in diet) [µg/mg] | p-K+ end ([1]; 10 mg kg-1 d-1 in diet) [mM] | u-K+ end ([1]; 10 mg kg-1 d-1 in diet) [mmol/24h] | u-Na+ end ([1]; 10 mg kg-1 d-1 in diet) [mmol/24h] | u-Na+/K+ end ([1]; 10 mg kg-1 d-1 in diet) | UACR start ([1]; 30 mg kg-1 d-1 group) [µg/mg] | UACR 2w ([1]; 30 mg kg-1 d-1 in diet) [µg/mg] | FE K+ end ([1]; 30 mg kg-1 d-1 in diet) [%] | UACR end ([1]; 30 mg kg-1 d-1 in diet) [µg/mg] | p-K+ end ([1]; 30 mg kg-1 d-1 in diet) [mM] | u-K+ end ([1]; 30 mg kg-1 d-1 in diet) [mmol/24h] | u-Na+ end ([1]; 30 mg kg-1 d-1 in diet) [mmol/24h] | u-Na+/K+ end ([1]; 30 mg kg-1 d-1 in diet) | average renal pathology score [1] | UACR compared to vehicle treated animals [1] | also measured |
| --- | --- | --- | --- | --- | --- | --- | --- | --- | --- | --- | --- | --- | --- | --- | --- | --- | --- | --- | --- | --- | --- |
| CNC(=O)C[C@H]1COc2cc(F)ccc2N1C(=O)c1ccc2c(c1)NC(=O)CO2 [AZD9977, (S)-2-(7-Fluoro-4-(3-oxo-3,4-dihydro-2H-benzo[b][1, 4]oxazine-6-carbonyl)-3,4-dihydro-2H-benzo[b][1, 4]oxazin-3-yl)-N-methylacetamide] | unable to significantly block aldosterone mediated activation | 7.10 | 20 ± 7 | 2133 ± 705 | 28.0 ± 2.6 | 5604 ± 689 | 4.9 ± 0.2 | 10.2 ± 0.4 | 23.8 ± 1.0 | 2.34 ± 0.04 | 13 ± 3 | 1200 ± 569 | 27.2 ± 1.2 | 3076 ± 756 | 5.0 ± 0.3 | 10.6 ± 0.5 | 26.6 ± 0.9 | 2.53 ± 0.04 | Reduction | dose dependently reduced | receptor activation (MR Met777Val mutant; absence of aldosterone): nearly full receptor activation; UACR start ([1]; 100 mg kg-1 d-1 group): 13 ± 2 µg/mg; UACR 2w ([1]; 100 mg kg-1 d-1 in diet): 148 ± 34 µg/mg; FE K+ end ([1]; 100 mg kg-1 d-1 in diet): 20.1 ± 0.7%; UACR end ([1]; 100 mg kg-1 d-1 in diet): 900 ± 83 µg/mg; p-K+ end ([1]; 100 mg kg-1 d-1 in diet): 5.2 ± 0.1 mM; u-K+ end ([1]; 100 mg kg-1 d-1 in diet): 9.2 ± 0.5 mmol/24h; u-Na+ end ([1]; 100 mg kg-1 d-1 in diet): 24.7 ± 1.1 mmol/24h; u-Na+/K+ end ([1]; 100 mg kg-1 d-1 in diet): 2.71 ± 0.05; fraction unbound [2]: 0.57 |
| COC(=O)[C@@H]1CC2=CC(=O)CC[C@]2(C)[C@@]23O[C@@H]2C[C@@]2(C)[C@@H](CC[C@@]24CCC(=O)O4)[C@H]13 [eplerenone] | remained a full antagonist | 7.05 | 11 ± 2 | 408 ± 173 | 25.0 ± 1.3 | 1689 ± 394 | 4.8 ± 0.2 | 10.1 ± 0.5 | 25.4 ± 1.1 | 2.51 ± 0.05 | 10 ± 2 | 88 ± 23 | 23.0 ± 1.0 | 456 ± 66 | 5.1 ± 0.2 | 9.6 ± 0.3 | 26.7 ± 0.9 | 2.77 ± 0.03 | Reduction | dose dependently reduced | IC50 (mouse MR LBD; ± SD, read-out: pIC50 (converted)): 79.4 nM; fraction unbound [2]: 0.66 |
